Numbered stars: 1 amine (or outer) side, 2 acyl side, 3 side chain; on linkers, the order of the positions; unused ones are H or OH. Bridge positions count the residues as written; N and C are the ends. Square brackets hold non-standard residues; d marks the D form. Peptide text beside a SMILES is read from it. Abu(3S-NH2) = C[C@H](N)[C@H](N)C(=O)O; Hpla = O=C(O)[C@@H](O)Cc1ccc(O)cc1; X1 = NCC[C@H](O[*:1])C(=O)[*:2]; Lac = C[C@H](O)C(=O)O

Data set [1] deals with T1, human CXCR4 (Homo sapiens, UniProt P61073).
T1 construct: expressed in transfected cells; host or cells: mouse pre-B cell line 300-19
The experiment in a line: Ca2+-assay: CXCR4-antagonizing activity (SDF-1 induced calcium mobilization). Type of data set: cell-based. Particulars: mouse pre-B cell line 300-19 stably transfected with human CXCR4, read-out: IC50% [nM] ± SD, CXCR4 receptor. From the text: 2.3. Ca^2+-Assay: CXCR4-Antagonizing Activity of the Depsipeptides
Increases in intracellular calcium were monitored using a Flexstation 384 (Molecular Devices, Sunnyvale, Calif.) to assay the depsipeptides for CXCR4 antagonism in a mouse pre-B cell line 300-19 stably transfected with human CXCR4 (E. Oberlin, A. Amara, F. Bachelerie, C. Bessia, J.-L. Virelizier, F. Arenzana-Seisdedos, O. Schwartz, J.-M. Heard, I. Clark-Lewis, D. F. Legler, M. Loetscher, M. Baggiolini, B. Moser, Nature 1996, 382, 833-835; M. Loetscher, T. Geiser, T. O'Reilly, R. Zwalen, M. Baggiolini, B. Moser, J. Biol. Chem. 1994, 269, 232-237; M. D'Apuuo, A. Rolink, M. Loetscher, J. A. Hoxie, I. Clark-Lewis, F. Melchors, M. Baggiolini, B. Moser, Eur. J. Immunol. 1997, 27, 1788-1793). The cells were batch loaded with the Calcium 4 Assay kit (Molecular Devices) in assay buffer (Hanks Balanced salt solution [HBSS], 20 mM HEPES, pH 7.4, 0.1% BSA) for 1 h at room temperature and labeled cells were dispensed into black well assays plates (Costar No. 3603). Calcium mobilization induced by stromal-derived factor-1 (SDF-1) was measured in the Flexstation 384 (excitation: 485 nm; emission: 525 nm) for 90 seconds. Antagonist activity of depsipeptides was determined by spiking the cells with compounds prior to SDF-1 addition. Dose response curves (compound concentration versus % maximum response for SDF-1) were determined for each antagonist and IC50 values were calculated by fitting the data to a four parameter logistic equation using SoftmaxPro 4.8 (Molecular Devices).

Data set [2] can be described thus: in vitro. The format is cell-based. The protocol:
The cytotoxicity of the depsipeptides to HELA cells (Acc57) and COS-7 cells (CRL-1651) was determined using the MTT reduction assay (T. Mossman, J. Immunol. Meth. 1983, 65, 55-63; M. V. Berridge, A. S. Tan, Arch. Biochem. Biophys. 1993, 303, 474-482). Briefly, the method was as follows: 7000 HELA cells/well and 4500 COS-7 cells/well were seeded and grown in 96-well microtiter plates for 24 h at 37° C. at 5% CO2. Thereafter, time zero (Tz) was determined by MTT reduction (see below). The supernatant of the remaining wells was discarded, and fresh medium and compounds in serial dilutions (12.5, 25 and 50 μM, triplicates) were pipetted into the wells. After incubation of the cells for 48 h at 37° C. at 5% CO2 the supernatant was discarded again and 100 μL MTT reagent (0.5 mg/mL in RPMI1640 and DMEM, respectively)/well was added. Following incubation at 37° C. for 2 h the media were aspirated and the cells were spiked (100 μL isopropanol/well). The absorbance of the solubilized formazan was measured at 595 nm (OD595peptide). For each concentration averages were calculated from triplicates. The percentage of growth was calculated as follows: (OD595peptide-OD595Tz-OD595Empty well)/(OD595Tz-OD595Empty well)×100%. The GI50 (Growth Inhibition) concentrations were calculated for each depsipeptide by using a trend line function for the concentrations (50, 25, 12.5 and 0 μM), the corresponding percentages and the value 50, (=TREND (C50:C0, %50:%0, 50).

In data set [3] the test system is human red blood cells (hRBC). Type of data set: cell-based. Particulars: red cells of human, 1 h. The protocol:
2.5. Hemolysis The depsipeptides were tested for their hemolytic activity against human red blood cells (hRBC). Fresh hRBC were washed three times with phosphate buffered saline (PBS) and centrifuged for 10 min at 2000×g. Compounds (100 μM) were incubated with 20% hRBC (v/v) for 1 h at 37° C. The final erythrocyte concentration was approximately 0.9×10^9 cells/mL. A value of 0% and 100% cell lyses, respectively, was determined by incubation of hRBC in the presence of PBS alone and 0.1% Triton X-100 in H2O, respectively. The samples were centrifuged, the supernatants were 20-fold diluted in PBS buffer and the optical densities (OD) were measured at 540 nm. The 100% lyses value (OD540H2O) gave an OD540 of approximately 1.3-1.8. Percent hemolysis was calculated as follows: (OD540peptide/OD540H2O)×100%.

Data set [4] is described as follows: Plasma stability, human plasma. The format is in vitro ADME. Particulars: 37° C., sampled up to 240 min; for half-life at 10 μM: read-out: Plasmastability human pl. T1/2. The protocol: (§1) The stability of the depsipeptides in human and mouse plasma was determined by applying the following method: 315 μL/deep well of freshly thawed human plasma (Basler Blutspende-dienst) and mouse plasma (Harlan Sera-Lab, UK), respectively, were spiked with 35 μL/well of compound in PBS (100 μM, triplicate) and incubated at 37° C. At t=0, 15, 30, 60, 120 and 240 min aliquots of 50 μL were transferred to filtration plate wells containing 150 μL/well of acetonitrile. Following shaking for 2 min the occurred suspensions were filtrated by vacuum and finally, 100 μL of each filtrate were transferred to a propylene microtiter plate, and analyzed by LC/MS as follows: Column: Waters, XBridge C18, mobile phases: (A) water+0.1% formic acid and (B) acetonitrile/water, 95/5 (v/v)+0.1% formic acid, gradient: 5%-100% (B) in 2 minutes, electrospray ionization, MRM detection (triple quadrupole). The peak areas were determined and triplicate values are averaged. The stability is expressed in percent of the initial value at t=0. (tx/t0×100). By using the TREND function of EXCEL (Microsoft Office 2003) T1/2 were determined.

Data set [5] is described as follows: Plasma stability, mouse plasma. Particulars: 37° C., sampled up to 240 min; for half-life at 10 μM: read-out: Plasmastability mouse pl. T1/2. Type of data set: in vitro ADME. The protocol:
as §1

T1 sequence (P61073 whole entry): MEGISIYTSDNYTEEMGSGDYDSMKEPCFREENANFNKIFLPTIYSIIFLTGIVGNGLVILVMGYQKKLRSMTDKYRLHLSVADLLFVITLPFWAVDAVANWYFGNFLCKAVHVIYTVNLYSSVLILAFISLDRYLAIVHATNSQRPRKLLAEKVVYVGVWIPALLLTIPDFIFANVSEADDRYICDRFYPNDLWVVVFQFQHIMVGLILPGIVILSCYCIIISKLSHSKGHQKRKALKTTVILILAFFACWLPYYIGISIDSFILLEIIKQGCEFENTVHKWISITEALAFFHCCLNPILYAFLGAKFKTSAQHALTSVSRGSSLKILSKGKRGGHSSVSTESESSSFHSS

With `C[C@@H]1NC(=O)[C@H](Cc2c[nH]cn2)NC(=O)[C@H](Cc2ccc(O)cc2)NC(=O)[C@@H]2CCCN2C(=O)[C@H]2CCCN2C(=O)[C@H](CCCCN)NC(=O)[C@H](CCC(N)=O)NC(=O)[C@H](Cc2ccc(O)cc2)NC(=O)[C@@H]2CSSC[C@H](NC1=O)C(=O)N[C@H](CO)C(=O)O[C@@H](C)C(=O)N1CCC[C@@H]1C(=O)N[C@@H]([C@H](C)N)C(=O)N[C@@H](CCCNC(=N)N)C(=O)N[C@@H](Cc1ccc(O)cc1)C(=O)N2` [Example 7] (cyclo(YHAC[dS][Lac][dP][Abu(3S-NH2)]RYCYQK[dP]P); disulfide 4-11), in data set [1], the half-maximal inhibitory concentration (IC50) worked out at 2.1 ± 0.5 nM. The GI50 at 48 h in data set [2] (African green monkey) and in data set [2] (human) was above 50000 nM throughout. Also, the “Hemolysis at 100 μM” value in data set [3] is recorded as 0.2%. Besides, the values for the half-life at 10 μM in data set [4] and in data set [5] were 1.03 h and 0.85 h, respectively.
Consider `C[C@@H]1NC(=O)[C@H](Cc2c[nH]cn2)NC(=O)[C@H](Cc2ccc(O)cc2)NC(=O)[C@@H]2CCCN2C(=O)[C@H]2CCCN2C(=O)[C@H](CCN)OC(=O)[C@H](CCC(N)=O)NC(=O)[C@H](Cc2ccc(O)cc2)NC(=O)[C@@H]2CSSC[C@H](NC1=O)C(=O)N[C@@H](CCCNC(=N)N)C(=O)N[C@@H](C)C(=O)N1CCC[C@@H]1C(=O)N[C@@H]([C@H](C)N)C(=O)N[C@@H](CCCNC(=N)N)C(=O)N[C@@H](Cc1ccc(O)cc1)C(=O)N2` [Example 8] (cyclo(YHACRA[dP][Abu(3S-NH2)]RYCYQ[X1][dP]P); disulfide 4-11), for which, in data set [1], the 50% inhibitory concentration (IC50) was 82.4 ± 12.8 nM. Moreover, the 50% growth inhibitory concentration (GI50) at 48 h in data set [2] (African green monkey) and in data set [2] (human) was above 50000 nM in each case. For the same compound, in data set [3], the “Hemolysis at 100 μM” value is 0.4%.
Regarding `C[C@@H]1NC(=O)[C@H](Cc2c[nH]cn2)NC(=O)[C@H](Cc2ccc(O)cc2)NC(=O)[C@@H]2CCCN2C(=O)[C@H]2CCCN2C(=O)[C@H](CCCCN)NC(=O)[C@H](CCC(N)=O)NC(=O)[C@H](Cc2ccc(O)cc2)OC(=O)[C@@H]2CSSC[C@H](NC1=O)C(=O)N[C@@H](CO)C(=O)N[C@@H](C)C(=O)N1CCC[C@@H]1C(=O)N[C@@H]([C@H](C)N)C(=O)N[C@@H](CCCNC(=N)N)C(=O)N[C@@H](Cc1ccc(O)cc1)C(=O)N2` [Example 3] (cyclo(YHACSA[dP][Abu(3S-NH2)]RYC[Hpla]QK[dP]P); disulfide 4-11), the IC50 in data set [1] came to 2.7 ± 1.4 nM. The concentration for 50% growth inhibition (GI50) at 48 h in data set [2] (African green monkey) and in data set [2] (human) was above 50000 nM throughout. Besides, the “Hemolysis at 100 μM” value in data set [3] stood at 0.4%. For the same compound, the half-life at 10 μM in data set [4] amounted to 1.35 h; in data set [5] it was 2.27 h.
For the compound `C[C@@H]1NC(=O)[C@H](Cc2c[nH]cn2)NC(=O)[C@H](Cc2ccc(O)cc2)OC(=O)[C@@H]2CCCN2C(=O)[C@H]2CCCN2C(=O)[C@H](CCCCN)NC(=O)[C@H](CCC(N)=O)NC(=O)[C@H](Cc2ccc(O)cc2)NC(=O)[C@@H]2CSSC[C@H](NC1=O)C(=O)N[C@@H](CO)C(=O)N[C@@H](C)C(=O)N1CCC[C@@H]1C(=O)N[C@@H]([C@H](C)N)C(=O)N[C@@H](CCCNC(=N)N)C(=O)N[C@@H](Cc1ccc(O)cc1)C(=O)N2` [Example 5] (cyclo([Hpla]HACSA[dP][Abu(3S-NH2)]RYCYQK[dP]P); disulfide 4-11), the concentration for half-maximal inhibition (IC50) in data set [1] is 3.3 ± 1.1 nM. The 50% growth inhibitory concentration (GI50) at 48 h in data set [2] (African green monkey) and in data set [2] (human) was above 50000 nM in each case. The “Hemolysis at 100 μM” value in data set [3] was found to be 1.5%. For the same compound, in data set [4], the Plasmastability human pl. T1/2 was above 4 h. In addition, the Plasmastability mouse pl. T1/2 in data set [5] is above 4 h.
As for `C[C@@H]1NC(=O)[C@H](Cc2c[nH]cn2)NC(=O)[C@H](Cc2ccc(O)cc2)NC(=O)[C@@H]2CCCN2C(=O)[C@H]2CCCN2C(=O)[C@H](CCCCN)NC(=O)[C@H](Cc2ccc(O)cc2)OC(=O)[C@H](Cc2ccc(O)cc2)NC(=O)[C@@H]2CSSC[C@H](NC1=O)C(=O)N[C@@H](CO)C(=O)N[C@@H](C)C(=O)N1CCC[C@@H]1C(=O)N[C@@H]([C@H](C)N)C(=O)N[C@@H](CCCNC(=N)N)C(=O)N[C@@H](Cc1ccc(O)cc1)C(=O)N2` [Example 4] (cyclo(YHACSA[dP][Abu(3S-NH2)]RYCY[Hpla]K[dP]P); disulfide 4-11), the 50% inhibitory concentration (IC50) in data set [1] stood at 4.4 ± 1.6 nM. Also, the GI50 at 48 h in data set [2] (African green monkey) and in data set [2] (human) was above 50000 nM throughout. In data set [3], the “Hemolysis at 100 μM” value worked out at 1.0%. Moreover, the Plasmastability human pl. T1/2 in data set [4] is above 4 h. In data set [5], the Plasmastability mouse pl. T1/2 was above 4 h.
For `C[C@@H]1NC(=O)[C@H](Cc2c[nH]cn2)NC(=O)[C@H](Cc2ccc(O)cc2)NC(=O)[C@@H]2CCCN2C(=O)[C@H]2CCCN2C(=O)[C@H](CCCCN)NC(=O)[C@H](CCC(N)=O)NC(=O)[C@H](Cc2ccc(O)cc2)NC(=O)[C@@H]2CSSC[C@H](NC1=O)C(=O)N[C@@H](CO)C(=O)O[C@@H](C)C(=O)N1CCC[C@@H]1C(=O)N[C@@H]([C@H](C)N)C(=O)N[C@@H](CCCNC(=N)N)C(=O)N[C@@H](Cc1ccc(O)cc1)C(=O)N2` [Example 1] (cyclo(YHACS[Lac][dP][Abu(3S-NH2)]RYCYQK[dP]P); disulfide 4-11), the IC50 in data set [1] is 0.8 ± 0.5 nM. In addition, the results for the GI50 at 48 h in data set [2] (African green monkey) and in data set [2] (human) were 12000 nM and 2000 nM, respectively. In addition, the “Hemolysis at 100 μM” value in data set [3] turned out to be 0.2%. The results for the half-life at 10 μM in data set [4] and in data set [5] were 1.32 h and 1.22 h, respectively.
On to `C[C@@H]1NC(=O)[C@H](CCCNC(=N)N)NC(=O)[C@@H]2CSSC[C@H](NC(=O)[C@H](Cc3ccc(O)cc3)NC(=O)[C@H](CCCNC(=N)N)NC(=O)[C@H]([C@H](C)N)NC(=O)[C@H]3CCCN3C1=O)C(=O)N[C@@H](Cc1ccc(O)cc1)C(=O)N[C@@H](CCC(N)=O)C(=O)N[C@@H](CCCCN)C(=O)N1CCC[C@@H]1C(=O)N1CCC[C@H]1C(=O)N[C@@H](Cc1ccc(O)cc1)C(=O)N[C@@H](Cc1c[nH]cn1)C(=O)O[C@@H](C)C(=O)N2` [Example 9] (cyclo(YH[Lac]CRA[dP][Abu(3S-NH2)]RYCYQK[dP]P); disulfide 4-11), for which the concentration for half-maximal inhibition (IC50) in data set [1] was 20.8 ± 8.3 nM. Besides, the GI50 at 48 h in data set [2] (African green monkey) and in data set [2] (human) was above 50000 nM in each case. Moreover, the “Hemolysis at 100 μM” value in data set [3] was 0.4%. In addition, the figures for the half-life at 10 μM in data set [4] and in data set [5] were 1.42 h and 1.23 h, respectively.

For the origin of these results see patent US8883720B2, “Template-fixed beta-hairpin peptidomimetics with CXCR4 antagonizing activity” (Polyphor AG, priority 2008, dated 2014).
